Legend:
[1] = tested on: release of gonadotropins by the pituitary gland; test: potency of the peptide compared with LRF; details: times more potent than LRF
Excerpt: The peptide can be used as a contraceptive for male mammals. The peptide can be administered by any suitable and convenient method, such as orally, by injection or subcutaneously. The peptide can be combined with suitable pharmaceutically acceptable carriers or diluents, such as vegetable oil, sugars, polysaccharides and gums.

male rats [2] = test: treatment of male rats with the peptide once a day: organ weights, plasma hormones, histology, fertility; format: in vivo, rat
Excerpt: It has been determined that the treatment of male rats with 10 micrograms of the peptide once a day for 7 days results in a decrease in testis and seminal vesicle weight, spermatogenesis and plasma androgen levels. However, immunoreactive gonadotropin levels in the treated male animals were elevated relative to control animals.

male rats [3] = test: as above; format: in vivo, rat; details: 10 μG peptide for 15 days (Table I)
male mammals = test: effective dosage level and recovery after cessation of 7-day treatment; format: in vivo
Excerpt: The peptide is used at a level effective to prevent reproduction by male mammals. It has been determined that the peptide of the invention is effective at levels as low as 0.5 microgram per kilogram of body weight per day for 7 days to reduce testes and seminal vesicle weights. […] Prostate weights recover in 2 weeks and seminal vesicle weights in 4 weeks. It is preferred to use dosage levels in the range of from about 0.5 to about 50 micrograms per kilogram of body weight per day. Higher levels can be used but no significant benefit is attained through use of higher levels.

female rats = details: large and frequent dosages; cited from earlier work
[4] = tested on: release of luteinizing hormone and other gonadotropins by the pituitary gland; details: compared with Gly6 peptide; cited from earlier work
[5] = following cessation of the injections
[6] = male rats, 10 micrograms once a day for 7 days
[7] = following cessation of treatment for 7 days

CCNC(=O)[C@@H]1CCCN1C(=O)[C@H](CCCNC(=N)N)NC(=O)[C@H](CC(C)C)NC(=O)[C@@H](Cc1c[nH]c2ccccc12)NC(=O)[C@H](Cc1ccc(O)cc1)NC(=O)[C@H](CO)NC(=O)[C@H](Cc1c[nH]c2ccccc12)NC(=O)[C@H](Cc1c[nH]cn1)NC(=O)[C@@H]1CCC(=O)N1 [peptide, p--Glu--His--Trp--Ser--Tyr--D--Trp--Leu--Arg--Pro--NH--CH2 --CH3]
potency relative to LRF [1]: about 150 times | ability to cause fertilization (male rats [2]; [5]): incapable of causing fertilization | ability to effect coitus (male rats [2]; [5]): capable of effecting coitus | histological examination of the testes (male rats [2]; following the 7-day treatment, up to several weeks following cessation of daily injections): tubular damage, arrested spermatogenesis and degenerated Sertoli cells | immunoreactive gonadotropin levels relative to control animals (male rats [2]; [6]): elevated | testis and seminal vesicle weight, spermatogenesis and plasma androgen levels (male rats [2]; [6]): decrease | Plasma DHT (male rats [3]): 151 ng/mL | Plasma FSH (male rats [3]): 1582 ng/mL | Plasma LH (male rats [3]): 561 ng/mL | Plasma Test. (male rats [3]): 229 ng/mL | Wt. Sem. V. (male rats [3]): 0.18 Grams | Wt. Testis (male rats [3]): 1.33 Grams | time for prostate weights to recover (male mammals; [7]): 2 weeks | time for seminal vesicle weights to recover (male mammals; [7]): 4 weeks | time until testosterone levels comparable to those of control animals (male mammals; [7]): one | level effective to reduce testes and seminal vesicle weights (male mammals; for 7 days): ≤ 0.5 microgram per kilogram of body weight per day

p--Glu--His--Trp--Ser--Tyr--Gly--Leu--Arg--Pro--Gly--NH2 (EHWSYGLRPG; pyroglutamyl N-terminus, C-terminal amide; printed: Glu--His--Trp--Ser--Tyr--Gly--Leu--Arg--Pro--Gly--) [LRF, hypothalamic hormone which acts as a releasing factor for LH; decapeptide]
effect on gonadal function (female rats): inhibit gonadal function

p--Glu--Trp--Ser--Tyr--D--Ala--Leu--Arg--Pro--Gly--NH2
potency as an inhibitor for the release of gonadotropins relative to the same peptide with Gly in the 6-position [4]: 3 times

Reference: patent US4218439A, “Peptide which inhibits gonadal function” (The Salk Institute for Biological Studies, priority 1978, dated 1980)
